Legend:
[1] = human gut metagenome, 24 h, 2 µM
[2] = human gut metagenome, 24 h, 2 µM; remark: listed apart in the source
[3] = human gut metagenome, 24 h, 2 µM; remark: listed apart in the source
[4] = human gut metagenome, 24 h, 2 µM; remark: listed apart in the source
[5] = human gut metagenome, 24 h, 2 µM; remark: listed apart in the source
[6] = human gut metagenome, 24 h, 2 µM; remark: listed apart in the source
[7] = (§1) The drug is tested on Z-013 corresponding to rabbit gut metagenome with ENA study accession number: PRJEB37062 and ENA sample accession number: ERS12561813 for biotransformation under anaerobic condition. The drug concentrations were measured over 9 timepoints collected between 0 and 24 hours of incubation by liquid-chromatography-coupled mass spectrometry (LC–MS); conditions: 2 µM
[8] = as §1, with “WLS-069” for “Z-013”, “human” for “rabbit”, “ERS12561748” for “ERS12561813”; conditions: 2 µM
[9] = as §1, with “WLS-077” for “Z-013”, “human” for “rabbit”, “ERS12561750” for “ERS12561813”; conditions: 2 µM
Further: call rule not given here.

SMILES	Bacterial Biotransformation [1]	Bacterial Biotransformation [2]	Bacterial Biotransformation [3]	Bacterial Biotransformation [4]	Bacterial Biotransformation [5]	Bacterial Biotransformation [6]	Bacterial Biotransformation [7]	Bacterial Biotransformation [8]	Bacterial Biotransformation [9]
CSc1ccc2c(c1)C(N1CCN(C)CC1)Cc1ccccc1S2.O=C(O)/C=C\C(=O)O (configuration not stated)	Compound NOT metabolized	Compound NOT metabolized	Compound NOT metabolized	Compound NOT metabolized	Compound NOT metabolized	Compound NOT metabolized	Compound metabolized		
CCN(CC)C(=O)C1(c2ccccc2)CC1CN (configuration not stated)	Compound NOT metabolized	Compound NOT metabolized	Compound NOT metabolized	Compound NOT metabolized	Compound NOT metabolized	Compound NOT metabolized	Compound NOT metabolized	Compound NOT metabolized	Compound NOT metabolized
COc1ccc(/C=C/C(=O)Nc2ccccc2C(=O)O)cc1OC	Compound NOT metabolized	Compound NOT metabolized	Compound NOT metabolized	Compound NOT metabolized	Compound metabolized	Compound NOT metabolized	Compound metabolized	Compound metabolized	Compound metabolized
Nc1nc(NC2CC2)c2ncn([C@H]3C=C[C@@H](CO)C3)c2n1.Nc1nc(NC2CC2)c2ncn([C@H]3C=C[C@@H](CO)C3)c2n1.O=S(=O)(O)O [ABACAVIR SULFATE]	Compound metabolized	Compound metabolized	Compound metabolized	Compound metabolized	Compound metabolized	Compound metabolized	Compound NOT metabolized	Compound metabolized	Compound metabolized
CCN(CC)CCNC(=O)c1ccc(NC(C)=O)cc1 [ACECAINIDE]	Compound NOT metabolized	Compound NOT metabolized	Compound NOT metabolized	Compound NOT metabolized	Compound NOT metabolized	Compound NOT metabolized	Compound NOT metabolized	Compound NOT metabolized	Compound NOT metabolized
O=C1CN2Cc3c(ccc(Cl)c3Cl)N=C2N1 [ANAGRELIDE]	Compound NOT metabolized	Compound NOT metabolized	Compound metabolized	Compound NOT metabolized	Compound NOT metabolized	Compound NOT metabolized	Compound NOT metabolized	Compound metabolized	Compound NOT metabolized
CN(C)C(=O)Oc1cc(OC(=O)N(C)C)cc(C(O)CNC(C)(C)C)c1 (configuration not stated) [BAMBUTEROL]	Compound NOT metabolized	Compound NOT metabolized	Compound metabolized	Compound NOT metabolized	Compound NOT metabolized	Compound metabolized	Compound NOT metabolized	Compound NOT metabolized	Compound NOT metabolized
CCc1oc2ccccc2c1C(=O)c1cc(Br)c(O)c(Br)c1 [BENZBROMARONE]	Compound metabolized	Compound metabolized	Compound metabolized	Compound NOT metabolized	Compound metabolized	Compound NOT metabolized	Compound NOT metabolized	Compound metabolized	Compound metabolized
CC(C)C[C@H]1C(=O)N2CCC[C@H]2[C@]2(O)O[C@](NC(=O)[C@@H]3C=C4c5cccc6[nH]c(Br)c(c56)C[C@H]4N(C)C3)(C(C)C)C(=O)N12.CS(=O)(=O)O [BROMOCRIPTINE MESYLATE]	Compound NOT metabolized	Compound metabolized	Compound metabolized	Compound NOT metabolized	Compound NOT metabolized	Compound metabolized	Compound metabolized	Compound metabolized	Compound metabolized
CC(NC(C)(C)C)C(=O)c1cccc(Cl)c1 (configuration not stated) [BUPROPION]	Compound NOT metabolized	Compound NOT metabolized	Compound NOT metabolized	Compound NOT metabolized	Compound metabolized	Compound NOT metabolized	Compound metabolized	Compound NOT metabolized	Compound NOT metabolized
O=C1CC2(CCCC2)CC(=O)N1CCCCN1CCN(c2ncccn2)CC1 [BUSPIRONE]	Compound metabolized	Compound NOT metabolized	Compound metabolized	Compound NOT metabolized	Compound metabolized	Compound metabolized	Compound NOT metabolized	Compound metabolized	Compound NOT metabolized
CCCC(C)(COC(N)=O)COC(=O)NC(C)C (configuration not stated) [CARISOPRODOL]	Compound metabolized	Compound metabolized	Compound metabolized	Compound NOT metabolized	Compound metabolized	Compound metabolized	Compound NOT metabolized	Compound metabolized	Compound metabolized
COc1ccccc1OCCNCC(O)COc1cccc2[nH]c3ccccc3c12 (configuration not stated) [CARVEDILOL]	Compound NOT metabolized	Compound NOT metabolized	Compound metabolized	Compound metabolized	Compound metabolized	Compound metabolized	Compound NOT metabolized	Compound metabolized	Compound metabolized
CCOC(=O)[C@H](CCc1ccccc1)N[C@@H](C)C(=O)N1CCC[C@H]1C(=O)O.O=C(O)/C=C\C(=O)O [ENALAPRIL MALEATE]	Compound NOT metabolized	Compound NOT metabolized	Compound NOT metabolized	Compound NOT metabolized	Compound NOT metabolized	Compound NOT metabolized		Compound NOT metabolized	Compound NOT metabolized
CN1[C@@H]2CC[C@H]1C[C@@H](OC(=O)[C@H](CO)c1ccccc1)C2 [HYOSCYAMINE]	Compound NOT metabolized			Compound NOT metabolized			Compound NOT metabolized		
COC1=C(OC)C(=O)C(CCCCCCCCCCO)=C(C)C1=O [IDEBENONE]	Compound NOT metabolized	Compound metabolized	Compound metabolized	Compound metabolized			Compound metabolized	Compound metabolized	Compound metabolized
C#C[C@]1(OC(C)=O)CC[C@H]2[C@@H]3CCC4=CC(=O)CC[C@@H]4[C@H]3CC[C@@]21C [NORETHINDRONE ACETATE]	Compound metabolized	Compound metabolized	Compound metabolized	Compound metabolized	Compound metabolized		Compound metabolized	Compound metabolized	
Cc1cc2c(s1)Nc1ccccc1N=C2N1CCN(C)CC1 [OLANZAPINE]	Compound NOT metabolized	Compound NOT metabolized	Compound NOT metabolized		Compound metabolized	Compound NOT metabolized	Compound NOT metabolized	Compound NOT metabolized	Compound metabolized
CC(=O)OCC(=O)NCCCOc1cccc(CN2CCCCC2)c1 [ROXATIDINE ACETATE]	Compound NOT metabolized	Compound metabolized	Compound metabolized	Compound metabolized	Compound metabolized	Compound metabolized	Compound NOT metabolized		Compound metabolized
CCCCCNC(=N)N/N=C/c1c[nH]c2ccc(OC)cc12.O=C(O)/C=C\C(=O)O [TEGASEROD MALEATE]	Compound NOT metabolized		Compound metabolized	Compound NOT metabolized	Compound NOT metabolized	Compound NOT metabolized	Compound NOT metabolized	Compound metabolized	Compound metabolized
COc1cc2nc(N3CCN(C(=O)C4CCCO4)CC3)nc(N)c2cc1OC (configuration not stated) [TERAZOSIN]	Compound NOT metabolized	Compound NOT metabolized	Compound NOT metabolized	Compound NOT metabolized	Compound NOT metabolized	Compound NOT metabolized	Compound NOT metabolized		Compound NOT metabolized

From ChEMBL document CHEMBL5724914, “Linking interpersonal differences in gut microbiota composition and drug biotransformation activity” (2024)
